Measured values reported in article PMC8217813, “Bridging Computational Vaccinology and Vaccine Development Through Systematic Identification, Characterization, and Downselection of Conserved and Variable Circumsporozoite Protein CD4 T Cell Epitopes From Diverse Plasmodium falciparum Strains” (Frontiers in Immunology, 2021).
Like-named read-outs stand apart in the source and are kept apart here. Peptide text beside a SMILES is read from it.

Legend:
HLA-DRB1*0701 = HLA-DRB1*0701 (Homo sapiens, UniProt P01903+P01911, A100R/A102G/A103Q/D57E/D86V/E43K/F76Y/K127E/L162R/M171V/P40G/Q125H/Q99D/R33Q/R42Y/R54Q/S133A/S66F/T210M/V115G/Y107V/Y59L/Y89S); experiment: In vitro class II HLA binding competition assay
Experimental: (§1) EpiVax conducted in vitro quantification of peptide-HLA binding affinity utilizing a competition assay format per the methodology described in ([35]). Briefly, a fluorescent-labeled, high-binding reference peptide and titrating concentrations of test peptide were incubated in a 96-well plate format with limiting concentrations of class II HLA monomers in aqueous buffer for 24-hours. Post incubation, the mixtures were moved to a 96-well plate coated with anti-HLA-DR antibody to capture HLA-peptide complexes. Time-resolved fluorescence measurement of the bound labeled reference peptide complex present in each mixture were detected with a europium-linked probe via fluorescent spectrophotometry using a SpectraMax M5 system. HLA binding affinity of each test peptide was expressed as the percent inhibition of reference peptide binding. Percent inhibition values (across the test peptide titration range) were used to calculate the half maximal inhibitory concentration (IC50) of each test peptide. For these studies, test peptides were assessed using a range of final concentrations from 100,000 nM to 100 nM and all peptides were reconstituted in dimethyl sulfoxide (DMSO).

HLA-DRB1*0101 = molecular target: T1, HLA-DRB1*0101 (Homo sapiens, UniProt P01903+P01911, A100R/D57E/F55L/F60I/F76Y/I96L/L162R/M171V/P40L/Q125E/R42F/V115G/Y59C); experiment: In vitro class II HLA binding competition assay
T1 construct: purchased
Experimental: as §1

HLA-DRB1*1501 = molecular target: T2, HLA-DRB1*1501 (Homo sapiens, UniProt P01903+P01911); experiment: In vitro class II HLA binding competition assay
T2 construct: purchased
Experimental: as §1

HLA-DRB1*1301 = HLA-DRB1*1301 (Homo sapiens, UniProt P01903+P01911, A100E/A169T/K41T/L162R/M171V/P40S/Q125H/Q178H/Q39Y/Q99D/R42S/S66N/T262R/W38E/Y61H); experiment: In vitro class II HLA binding competition assay; details: competition with fluorescent-labeled reference peptide, class II HLA monomers, 24-hours, test peptide 100,000 nM to 100 nM, time-resolved fluorescence
Experimental: as §1

HLA-DRB1*0801 = HLA-DRB1*0801 (Homo sapiens, UniProt P01903+P01911, A100R/A103L/A169T/D86S/F76Y/H45Y/I96F/K41T/L162R/M171V/P40S/Q125H/Q178H/Q39Y/Q99D/R218S/R42G/S66Y/V115G/W38E); experiment: In vitro class II HLA binding competition assay; details: competition with fluorescent-labeled reference peptide, class II HLA monomers, 24-hours, test peptide 100,000 nM to 100 nM, time-resolved fluorescence
Experimental: as §1

HLA-DRB1*0401 = molecular target: T3, HLA-DRB1*0401 (Homo sapiens, UniProt P01903+P01911, A100K/A169T/F76Y/I96L/K127E/L162R/M171V/N62H/P40V/Q125Y/R42H/S133A/S149N/S66Y/V115G/V209L/W38E); experiment: In vitro class II HLA binding competition assay
T3 construct: purchased
Experimental: as §1

[1] = system: CD4 T cells co-cultured with autologous DCs from PBMCs; format: cell-based, human
HLA A*0201 = molecular target: T4, HLA A*0201 (Homo sapiens, UniProt P04439, D140Y/D185E/D98H/E176V/E277Q/G131W/G231S/I119V/I121R/I166T/I218V/L300P/L318F/N151K/N90K/P208A/P217A/Q86G/Q94H/R138H/R169H/T345S); experiment: biochemical; format: binding; details: allele A0201; cell-free competition with fluorescently labeled control peptide, fluorescence polarization at 72 hours; read-out: IC50
T4 construct: Pure Protein, LLC (ran the assay)

HLA A*0301 = molecular target: T5, HLA A*0301 (Homo sapiens, UniProt P04439); experiment: In vitro class I HLA binding competition assay (fluorescence polarization); details: allele A0301; cell-free competition with fluorescently labeled control peptide, fluorescence polarization at 72 hours
T5 construct: Pure Protein, LLC (ran the assay)

HLA B*0702 = molecular target: T6, HLA B*0702 (Homo sapiens, UniProt P01889); experiment: biochemical; format: binding; details: allele B0702; cell-free competition with fluorescently labeled control peptide, fluorescence polarization at 72 hours
T6 construct: Pure Protein, LLC (ran the assay)

[2] = DR1 donors N=5, positive = Stimulation Index ≥1.5-fold above baseline, ICCS, 5 µg/mL peptide
[3] = DR3 donors N=6, positive = Stimulation Index ≥1.5-fold above baseline, ICCS, 5 µg/mL peptide
[4] = DR4 donors N=10, positive = Stimulation Index ≥1.5-fold above baseline, ICCS, 5 µg/mL peptide
[5] = DR7 donors N=4, positive = Stimulation Index ≥1.5-fold above baseline, ICCS, 5 µg/mL peptide
[6] = DR8 donors N=4, positive = Stimulation Index ≥1.5-fold above baseline, ICCS, 5 µg/mL peptide
[7] = DR9 donors N=4, positive = Stimulation Index ≥1.5-fold above baseline, ICCS, 5 µg/mL peptide
[8] = DR11 donors N=4, positive = Stimulation Index ≥1.5-fold above baseline, ICCS, 5 µg/mL peptide
[9] = DR13 donors N=7, positive = Stimulation Index ≥1.5-fold above baseline, ICCS, 5 µg/mL peptide
[10] = DR15 donors N=7, positive = Stimulation Index ≥1.5-fold above baseline, ICCS, 5 µg/mL peptide

CC(C)C[C@H](NC(=O)[C@@H](NC(=O)[C@H](CCCNC(=N)N)NC(=O)[C@@H](NC(=O)[C@H](CC(N)=O)NC(=O)[C@H](CO)NC(=O)[C@H](CO)NC(=O)[C@H](CO)NC(=O)CNC(=O)[C@H](Cc1ccc(O)cc1)NC(=O)[C@H](CS)NC(=O)[C@H](CCC(N)=O)NC(=O)[C@H](Cc1ccc(O)cc1)NC(=O)[C@H](CCC(=O)O)NC(=O)[C@H](CCC(N)=O)NC(=O)[C@H](Cc1ccccc1)NC(=O)[C@H](CCCCN)NC(=O)[C@@H](N)CCCCN)[C@@H](C)O)C(C)C)C(=O)N[C@@H](CC(N)=O)C(=O)N[C@@H](CCC(=O)O)C(N)=O [Cluster C1] (H-KKFQEYQCYGSSSNTRVLNE-NH2)
IC50 (HLA-DRB1*0701; competition with fluorescent-labeled reference peptide, class II HLA monomers, 24-hours, test peptide 100,000 nM to 100 nM, time-resolved fluorescence, read-out: IC50, DRB1*0701): 36.7 µM | IC50 (HLA-DRB1*0101; competition with fluorescent-labeled reference peptide, class II HLA monomers, 24-hours, test peptide 100,000 nM to 100 nM, time-resolved fluorescence): 50.1 µM | IC50 (HLA-DRB1*1501; competition with fluorescent-labeled reference peptide, class II HLA monomers, 24-hours, test peptide 100,000 nM to 100 nM, time-resolved fluorescence, read-out: IC50, DRB1*1501): 1.77 µM

CC[C@H](C)[C@H](NC(C)=O)C(=O)N[C@@H](CCC(=O)O)C(=O)N[C@@H](CCC(N)=O)C(=O)N[C@@H](Cc1ccc(O)cc1)C(=O)N[C@@H](CC(C)C)C(=O)N[C@@H](CCCCN)C(=O)N[C@@H](CCCCN)C(=O)N[C@H](C(=O)N[C@@H](CCC(N)=O)C(=O)N[C@@H](Cc1ccc(O)cc1)C(=O)N[C@@H](CO)C(=O)N[C@@H](CC(C)C)C(=O)N[C@@H](CO)C(=O)N[C@H](C(=O)N[C@@H](CCC(=O)O)C(=O)N[C@@H](Cc1c[nH]c2ccccc12)C(=O)N[C@@H](CO)C(=O)N1CCC[C@H]1C(=O)N[C@@H](CS)C(N)=O)[C@@H](C)O)[C@@H](C)CC [ICS7] (Ac-IEQYLKKIQYSLSTEWSPC-NH2)
IC50 (HLA-DRB1*1301): 17.9 µM | IC50 (HLA-DRB1*0701): 2.76 µM | IC50 (HLA-DRB1*0101): > 100 µM | IC50 (HLA-DRB1*1501): 63.2 µM | IC50 (HLA-DRB1*0801): 6.09 µM | IC50 (HLA-DRB1*0401): 32.8 µM | median SI, IFN-γ recall responses [1]: 1.75 | Percentage of donors demonstrating IFN-γ responses, DR1 ([1]; DR1 donors N=5, positive = Stimulation Index ≥1.5-fold above baseline, ICCS after 14-day co-culture, 5 µg/mL peptide): 60% | Percentage of donors demonstrating IL-2 responses, DR1 [1, 2]: 60% | Percentage of donors demonstrating IL-4 responses, DR1 [1, 2]: 20% | Percentage of donors demonstrating IL-10 responses, DR1 [1, 2]: 0% | Percentage of donors demonstrating TNF-α responses, DR1 [1, 2]: 40% | Percentage of donors demonstrating IFN-γ responses, DR3 ([1]; DR3 donors N=6, positive = Stimulation Index ≥1.5-fold above baseline, ICCS after 14-day co-culture, 5 µg/mL peptide): 67% | Percentage of donors demonstrating IL-2 responses, DR3 [1, 3]: 33% | Percentage of donors demonstrating IL-4 responses, DR3 [1, 3]: 0% | Percentage of donors demonstrating IL-10 responses, DR3 [1, 3]: 0% | Percentage of donors demonstrating TNF-α responses, DR3 [1, 3]: 50% | Percentage of donors demonstrating IFN-γ responses, DR4 ([1]; DR4 donors N=10, positive = Stimulation Index ≥1.5-fold above baseline, ICCS after 14-day co-culture, 5 µg/mL peptide): 70% | Percentage of donors demonstrating IL-2 responses, DR4 [1, 4]: 70% | Percentage of donors demonstrating IL-4 responses, DR4 [1, 4]: 0% | Percentage of donors demonstrating IL-10 responses, DR4 [1, 4]: 10% | Percentage of donors demonstrating TNF-α responses, DR4 [1, 4]: 80% | Percentage of donors demonstrating IFN-γ responses, DR7 ([1]; DR7 donors N=4, positive = Stimulation Index ≥1.5-fold above baseline, ICCS after 14-day co-culture, 5 µg/mL peptide): 75% | Percentage of donors demonstrating IL-2 responses, DR7 [1, 5]: 75% | Percentage of donors demonstrating IL-4 responses, DR7 [1, 5]: 0% | Percentage of donors demonstrating IL-10 responses, DR7 [1, 5]: 25% | Percentage of donors demonstrating TNF-α responses, DR7 [1, 5]: 75% | Percentage of donors demonstrating IFN-γ responses, DR8 ([1]; DR8 donors N=4, positive = Stimulation Index ≥1.5-fold above baseline, ICCS after 14-day co-culture, 5 µg/mL peptide): 75% | Percentage of donors demonstrating IL-2 responses, DR8 [1, 6]: 75% | Percentage of donors demonstrating IL-4 responses, DR8 [1, 6]: 0% | Percentage of donors demonstrating IL-10 responses, DR8 [1, 6]: 0% | Percentage of donors demonstrating TNF-α responses, DR8 [1, 6]: 100% | Percentage of donors demonstrating IFN-γ responses, DR9 ([1]; DR9 donors N=4, positive = Stimulation Index ≥1.5-fold above baseline, ICCS after 14-day co-culture, 5 µg/mL peptide): 50% | Percentage of donors demonstrating IL-2 responses, DR9 [1, 7]: 75% | Percentage of donors demonstrating IL-4 responses, DR9 [1, 7]: 0% | Percentage of donors demonstrating IL-10 responses, DR9 [1, 7]: 0% | Percentage of donors demonstrating TNF-α responses, DR9 [1, 7]: 50% | Percentage of donors demonstrating IFN-γ responses, DR11 ([1]; DR11 donors N=4, positive = Stimulation Index ≥1.5-fold above baseline, ICCS after 14-day co-culture, 5 µg/mL peptide): 25% | Percentage of donors demonstrating IL-2 responses, DR11 [1, 8]: 25% | Percentage of donors demonstrating IL-4 responses, DR11 [1, 8]: 0% | Percentage of donors demonstrating IL-10 responses, DR11 [1, 8]: 0% | Percentage of donors demonstrating TNF-α responses, DR11 [1, 8]: 25% | Percentage of donors demonstrating IFN-γ responses, DR13 ([1]; DR13 donors N=7, positive = Stimulation Index ≥1.5-fold above baseline, ICCS after 14-day co-culture, 5 µg/mL peptide): 86% | Percentage of donors demonstrating IL-2 responses, DR13 [1, 9]: 57% | Percentage of donors demonstrating IL-4 responses, DR13 [1, 9]: 0% | Percentage of donors demonstrating IL-10 responses, DR13 [1, 9]: 14% | Percentage of donors demonstrating TNF-α responses, DR13 [1, 9]: 71% | Percentage of donors demonstrating IFN-γ responses, DR15 ([1]; DR15 donors N=7, positive = Stimulation Index ≥1.5-fold above baseline, ICCS after 14-day co-culture, 5 µg/mL peptide): 43% | Percentage of donors demonstrating IL-2 responses, DR15 [1, 10]: 57% | Percentage of donors demonstrating IL-4 responses, DR15 [1, 10]: 0% | Percentage of donors demonstrating IL-10 responses, DR15 [1, 10]: 14% | Percentage of donors demonstrating TNF-α responses, DR15 [1, 10]: 57%

CC[C@H](C)[C@H](NC(=O)[C@H](CO)NC(=O)[C@H](CO)NC(=O)[C@H](CC(N)=O)NC(=O)[C@@H](NC(=O)[C@@H](NC(=O)[C@H](CC(N)=O)NC(=O)[C@H](Cc1ccccc1)NC(=O)[C@@H](NC(=O)[C@@H](N)CO)C(C)C)C(C)C)C(C)C)C(=O)O [Cluster 376_3D7] (H-SVFNVVNSSI-OH)
IC50 (HLA A*0201): 342 µM | IC50 (nM) (HLA A*0301): Non-Binder | IC50 (nM) (HLA B*0702): Non-Binder
